Results: patent publication US12128038B2, “Method of treatment of organic acidemias and other mitochondria defects or deficiencies” (University of Pittsburgh-Of the Commonwealth System of …, priority 2020, dated 2024)

Assays:
Assay type in all cases: cell-based, human
[1] = test system: PA patient (859) fibroblasts; experiment: Mitochondrial superoxide production by MitoSOX Red assay (flow cytometry); conditions: PA cells, treatment for 24 h
Protocol: (§1) Cells Culture and Treatments: Fibroblast from a healthy control (826) and a PA patient (859) were grown in DMEM with glucose supplemented with 10% FBS, and 4 mM glutamine. Control and PA cells were treated either with JP4-039, CLP, or DMSO (vehicle control) for 24 h and then harvested for analysis.
Mitochondrial Superoxide production and Mitochondrial Mass: 150,000 Cells were incubated with MitoSOX Red (5 μM) and MitoTracker Green (150 nM) for 20 min at 37° C. and then analyzed by FACSAriall Flow cytometer.
FIG. 2. Superoxide levels detected by MitoSOX Red assay (A, B and C) and Mitochondrial mass detected by MitoTracker Green (D, E and F) in PA and healthy control cells with and without treatment for 24 h (A, B and C). Data shown here are means±SD and are normalized to WT mean value. ****P<0.0001, ***P<0.001, **P<0.01, *P<0.05 compared between the groups shown using unpaired t test for samples from a single biological replicate and minimum of at least three technical replicates.

[2] = test system: PA (859) fibroblast cell line; experiment: Mitochondrial respiration (oxygen consumption rate), Seahorse XFe96 Extracellular Flux Analyzer; conditions: PA cells, treatment for 24 h, Seahorse OCR
Protocol: as §1
Measurement of Mitochondria Respiration: Oxygen consumption rate (OCR) was measured with a Seahorse XFe96 Extracellular Flux Analyzer, Seahorse Bioscience, Billerica, MA.
FIG. 3. Effect of JP4-039 and CLP on basal respiration of control (826) and PA (859) fibroblast cell line. Data shown here are means±SEM and are normalized to protein amount mean value. ****P<0.0001 and ***P<0.001 compared between the groups shown using unpaired t test for samples from a single biological replicate and 8 technical replicates.

[3] = test system: cells from patients with inborn errors of energy metabolism; experiment: Cellular bioenergetics and reactive oxygen on incubation with antioxidants

| SMILES | superoxide level [1] | basal respiration [2] | cellular bioenergetics [3] | reactive oxygen [3] |
| --- | --- | --- | --- | --- |
| O=C(O)CCC(=O)O [succinate] | reduced | reduced | – | – |
| O=C(O)CC(O)(CC(=O)O)C(=O)O [citrate] | reduced | reduced | – | – |
| CC(C)C[C@@H](/C=C/[C@H](Cc1ccccc1)C(=O)N1CCC[C@H]1C(=O)N[C@H](C(=O)N[C@@H](CCCNC(=O)OCc1ccccc1)C(=O)NC1CC(C)(C)N([O])C(C)(C)C1)C(C)C)NC(=O)OC(C)(C)C [XJB-5-131] | – | – | improve | improve |
